Columns and labels:
[1] = tested on: peptide-loaded MDA-MB-231 cells; assay: Mechanisms of peptide loading: acid stripping, pronase, Brefeldin A, 51Cr-release; type: cell-based, human
Text: To distinguish between loading of the peptides into the cytosol and simple binding of these peptides to the surface MHC molecules several approaches were used. First, β2-microglobulin was removed from the surface of peptide-loaded tumor cells by acid stripping. […] Second, pronase was used for complete enzymatic digestion of HLA molecules on the cell surface after loading in order to be able to detect the appearance of new internally formed HLA-peptide complexes on the cell surface, but not pulsing of the cells. Third, Brefeldin A (BFA), a metabolite of the fungus Eupenicillium brefeldianum, was used which specifically blocks protein transport from the ER to Golgi apparatus.
These experiments confirmed that the antigenic peptides were introduced into the cytosol of the cells, resulting in a prolonged and more efficient antigen presentation.

TAP (human) = TAP (human) (UniProt Q03518); assay: cell-based or functional assay
Chain of TAP (human) (Q03518 whole entry, chain 1 of 2): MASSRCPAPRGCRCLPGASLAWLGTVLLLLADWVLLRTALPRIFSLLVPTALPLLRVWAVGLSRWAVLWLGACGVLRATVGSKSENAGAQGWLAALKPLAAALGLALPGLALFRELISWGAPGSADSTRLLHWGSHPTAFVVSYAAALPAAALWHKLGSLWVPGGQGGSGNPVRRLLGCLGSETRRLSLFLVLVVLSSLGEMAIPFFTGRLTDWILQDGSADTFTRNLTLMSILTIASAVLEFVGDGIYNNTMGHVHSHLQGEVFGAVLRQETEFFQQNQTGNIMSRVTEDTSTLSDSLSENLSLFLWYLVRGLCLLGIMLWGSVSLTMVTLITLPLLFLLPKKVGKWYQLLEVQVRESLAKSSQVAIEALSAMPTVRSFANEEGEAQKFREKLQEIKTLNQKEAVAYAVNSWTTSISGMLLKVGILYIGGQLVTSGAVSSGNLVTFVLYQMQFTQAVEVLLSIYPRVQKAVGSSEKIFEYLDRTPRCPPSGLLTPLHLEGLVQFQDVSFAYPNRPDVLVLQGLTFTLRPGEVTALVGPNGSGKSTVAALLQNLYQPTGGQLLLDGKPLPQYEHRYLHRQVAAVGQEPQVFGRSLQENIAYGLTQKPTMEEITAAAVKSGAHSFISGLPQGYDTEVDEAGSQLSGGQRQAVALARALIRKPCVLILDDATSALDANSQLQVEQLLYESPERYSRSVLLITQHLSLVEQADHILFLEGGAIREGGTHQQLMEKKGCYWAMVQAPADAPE
Chain of TAP (human) (Q03519 whole entry, chain 2 of 2, further chain): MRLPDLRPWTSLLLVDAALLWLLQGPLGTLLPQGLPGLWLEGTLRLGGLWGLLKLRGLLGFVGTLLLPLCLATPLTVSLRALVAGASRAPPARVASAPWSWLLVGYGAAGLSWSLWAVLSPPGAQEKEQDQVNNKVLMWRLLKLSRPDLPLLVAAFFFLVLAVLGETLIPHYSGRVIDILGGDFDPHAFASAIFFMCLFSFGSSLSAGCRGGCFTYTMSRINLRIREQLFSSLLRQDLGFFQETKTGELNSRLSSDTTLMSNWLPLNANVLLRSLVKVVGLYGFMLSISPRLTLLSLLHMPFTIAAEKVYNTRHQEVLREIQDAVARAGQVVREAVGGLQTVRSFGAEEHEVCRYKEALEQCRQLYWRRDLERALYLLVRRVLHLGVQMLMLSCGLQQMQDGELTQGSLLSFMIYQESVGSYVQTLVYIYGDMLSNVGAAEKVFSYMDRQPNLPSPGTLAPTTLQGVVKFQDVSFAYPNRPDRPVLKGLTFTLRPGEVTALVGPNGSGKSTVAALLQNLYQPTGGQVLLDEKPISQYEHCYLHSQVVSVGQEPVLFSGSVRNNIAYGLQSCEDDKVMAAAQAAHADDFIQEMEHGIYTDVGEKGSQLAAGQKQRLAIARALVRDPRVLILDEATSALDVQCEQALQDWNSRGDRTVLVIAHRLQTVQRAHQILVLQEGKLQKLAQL

T2 cells [2] = assay: 51Cr-release assay, T2 cells loaded or pulsed with signal sequence constructs, at periods after loading; type: cell-based, human; conditions: loading into the cytosol; days 1-8 after loading
Text: By “loading” of the fusion peptides into the cytosol of T2 cells, cancer cells and dendritic cells is meant use of a technology called “osmotic lysis of pinocytic vesicles.” T2 cells were exposed to hypertonic medium containing the peptide constructs. Pinocytic vesicles form in this medium, and because of their increased internal osmotic pressure, they break in the cytosol when the cells are placed in hypotonic culture medium.
The induction of CTL in human PBMC was monitored in a conventional ^51Cr-labeling release assay. Briefly, peptide-pulsed TAP^−/HLA-A2.1^+ human T2 cells were incubated with 10 μg of HER2/neu peptides or the MART-1 control peptide for 90 min during labeling with ^51Cr. After washing, the target cells were added to serially diluted effectors in 96-well microplates. After a 6-h incubation at 37° C., supernatants were harvested and counted in a gamma counter. Results are expressed as the percentage of specific lysis and determined as follows: [(experimental cpm−spontaneous cpm)/(maximum cpm−spontaneous cpm)]×100.
Peptide-loaded or pulsed T2 cells were tested for their ability to present HER2/neu peptides at different periods of time after loading or pulsing.

T2 cells [3] = assay: IFNγ release by CTL (ELISA) after incubation with peptide-loaded T2 cells; type: cell-based, human; conditions: CTL elicited with the corresponding HER2/neu peptide, 20 h, 10^5 CTL/well
Method: In interferon gamma-release assays, 10^5 HER2/neu-specific CTL were co-incubated with 10^5 peptide-loaded T2 cells for 20 hours at 37° C. The concentrations of human interferon gamma in co-cultured supernatants were then determined by ELISA.

[4] = tested on: breast cancer cells MDA-MB-231; assay: 51Cr-release assay, MDA-MB-231 cells loaded or pulsed with signal sequence constructs; type: cell-based, human; conditions: loading; days 1-8 after loading
Method: ^51Cr-release assays were used to test to see if the low HER2/neu-expressing breast cancer cells MDA-MB-231 can be recognized more efficiently by the HER2/neu-specific CTL after loading with the fusion peptides.
The lysis of the tumor cells by the HER2/neu-specific CTL was monitored in a conventional ^51Cr-labeling release assay. Briefly, peptide-loaded tumor cells were added to serially diluted effectors in 96-well microplates. After a 6-h incubation at 37° C., supernatants were harvested and counted in a gamma counter. Results are expressed as the percentage of specific lysis and determined as follows: [(experimental cpm−spontaneous cpm)/(maximum cpm−spontaneous cpm)]×100.
Peptide-loaded breast cancer cells MDA-MB-231 were tested for their ability to present HER2/neu peptides at different periods of time after loading or pulsing.

[5] = tested on: breast cancer cells MDA-MB-231; assay: IFNγ release by CTL (ELISA) after incubation with peptide-loaded MDA-MB-231 cells; type: cell-based, human; conditions: CTL elicited with the corresponding HER2/neu peptide, 20 h, 10^5 CTL/well
Method: In interferon gamma release assays, 10^5 HER2/neu-specific CTL were co-incubated with 10^5 peptide-loaded tumor cells for 20 hours at 37° C. The concentration of human interferon gamma in co-cultured supernatants was then determined by ELISA.

[6] = tested on: ICP47-transfected cells MCF7; assay: Functional blockade of TAP by ICP47, 51Cr-release from peptide-loaded cells; type: cell-based, human; conditions: for Percent 51Cr Released From ICP47-transfected MCF7 cells loaded with the construct: CTL reactive against the corresponding HER2/neu peptide, 3 days after peptide loading, 6-hour assay
Text: Another aspect in these studies was to determine the mechanisms of enhancement of the antigen presentation by the fusion peptides in human tumor cell lines. Therefore, a new test system was developed utilizing the Herpes Simplex virus (HSV) protein ICP47. ICP47 is a cytoplasmic protein, which interferes with antigen presentation by physically associating with TAP within the cell and inhibiting peptide transport across the ER-membrane. By transfecting the ICP47 gene into several cancer cell lines a novel system for screening different fusion peptides for TAP-independent translocation of peptide antigens through the ER-membrane was generated.
The expression of these antigens was detected by ^51Cr-release assays.

HLA-A2.1 (human) = assay: cell-based or functional assay

C[C@H]1CCC/C=C/[C@@H]2C[C@H](O)C[C@H]2[C@H](O)/C=C/C(=O)O1 [Brefeldin A]
Blocking of recognition of peptide-loaded tumor cells by HER2/neu-specific CTL [1]: specifically blocks the recognition

Herpes Simplex virus (HSV) protein ICP47 (from UniProt P03170 1-88)
Percent 51Cr released from MCF7-ICP47 (CTL369-377, E:T 20:1; 29 for untransfected MCF7) (percent 51Cr released) (TAP (human)): 3 | Percent 51Cr released from MCF7-ICP47 (CTL369-377, E:T 40:1; 62 for untransfected MCF7) (percent 51Cr released) (TAP (human)): 3 | Percent 51Cr released from MCF7-ICP47 (CTL654-662, E:T 20:1; 31 for untransfected MCF7) (percent 51Cr released) (TAP (human)): 2 | Percent 51Cr released from MCF7-ICP47 (CTL654-662, E:T 40:1; 74 for untransfected MCF7) (percent 51Cr released) (TAP (human)): 4

M A IISAVVGIL A A A A A G (MAIISAVVGILAAAAAG) [HER654-662-IN-AF]
Recognition by CTL of T2 cells loaded with the peptide (51Cr-release) (T2 cells [2]): effective | Release of IFNγ by CTL, T2 cells loaded with the peptide (T2 cells [3]; Day 1 after peptide loading): 3321 pg/mL | Release of IFNγ by CTL, T2 cells loaded with the peptide (T2 cells [3]; Day 3 after peptide loading): 2981 pg/mL | Release of IFNγ by CTL, T2 cells loaded with the peptide (T2 cells [3]; Day 5 after peptide loading): 1892 pg/mL | Release of IFNγ by CTL, T2 cells loaded with the peptide (T2 cells [3]; Day 8 after peptide loading): 881 pg/mL | Recognition by CTL of MDA-MB-231 cells loaded with the peptide (51Cr-release) [4]: effective | Release of IFNγ by CTL, MDA-MB-231 cells loaded with the peptide ([5]; Day 1 after peptide loading): 3321 pg/mL | Release of IFNγ by CTL, MDA-MB-231 cells loaded with the peptide ([5]; Day 3 after peptide loading): 2994 pg/mL | Release of IFNγ by CTL, MDA-MB-231 cells loaded with the peptide ([5]; Day 5 after peptide loading): 1933 pg/mL | Release of IFNγ by CTL, MDA-MB-231 cells loaded with the peptide ([5]; Day 8 after peptide loading): 899 pg/mL | Restoration of antigen presentation in ICP47-transfected breast cancer cells ([6]; 51Cr-release): able to restore the antigen presentation | Percent 51Cr Released From ICP47-transfected MCF7 cells loaded with the construct ([6]; E:T 20:1): 22% | Percent 51Cr Released From ICP47-transfected MCF7 cells loaded with the construct ([6]; E:T 40:1): 66%

MA HLYQGCQVV AAAAAG (MAHLYQGCQVVAAAAAG) [HER48-56-IN-AF]
Recognition by CTL of T2 cells loaded with the peptide (51Cr-release) (T2 cells [2]): effective | Release of IFNγ by CTL, T2 cells loaded with the peptide (T2 cells [3]; Day 1 after peptide loading): 3488 pg/mL | Release of IFNγ by CTL, T2 cells loaded with the peptide (T2 cells [3]; Day 3 after peptide loading): 1229 pg/mL | Release of IFNγ by CTL, T2 cells loaded with the peptide (T2 cells [3]; Day 5 after peptide loading): 1010 pg/mL | Release of IFNγ by CTL, T2 cells loaded with the peptide (T2 cells [3]; Day 8 after peptide loading): 718 pg/mL

anti-HLA-A2 antibody BB7.2
Percent LDH released from peptide-pulsed K562-A2 +BB7.2 (CTL specific for STEAP130-138 -1F/3W/9V; 74 without antibody) (percent LDH released) (HLA-A2.1 (human)): 1 | Percent LDH released from peptide-pulsed K562-A2 +BB7.2 (CTL specific for STEAP130-138 -1F; 75 without antibody) (percent LDH released) (HLA-A2.1 (human)): 2 | Percent LDH released from peptide-pulsed K562-A2 +BB7.2 (CTL specific for STEAP130-138 -3W; 63 without antibody) (percent LDH released) (HLA-A2.1 (human)): 5 | Percent LDH released from peptide-pulsed K562-A2 +BB7.2 (CTL specific for STEAP130-138 -9V; 53 without antibody) (percent LDH released) (HLA-A2.1 (human)): 1 | Percent LDH released from peptide-pulsed K562-A2 +BB7.2 (CTL specific for STEAP130-138; 63 without antibody) (percent LDH released) (HLA-A2.1 (human)): 2 | Percent LDH released from peptide-pulsed K562-A2 +BB7.2 (CTL specific for STEAP192-200; 56 without antibody) (percent LDH released) (HLA-A2.1 (human)): 7

From US20080044484A1, “Use of polymeric nanoparticles for vaccine delivery” (THE REGENTS OF THE UNIVERSITY OF CALIFORNIA, priority 2004, published 2008)
